Format in all cases: cell-based, human
The test system of one series is HGPS fibroblasts. Nature of the series: Quantitative mass spectrometry proteome analysis in HGPS fibroblasts. On the procedure:
(§1) Total protein extracts were prepared with RIPA buffer (50mMTris-cl pH 8.0, 5 mM EDTA, 150 mM Nacl, 15 mM Mgcl2, 1% NP-40, 1 mM PMSF and 1× Protease Inhibitor Cocktail (PIC)). Further, a sonication step was included: (30S ON, 30S OFF, 10 cycles with Bioruptor). Equal […] protein extracts were concentrated to […] volume, then diluted in 8M urea in 0.1M Tris-HCl, followed by protein digestion with trypsin, according to the FASP protocol(66). After an overnight digestion, the peptides were eluted from the filters with 25 mM ammonium bicarbonate buffer. The eluted peptides were processed in the desalting step by using Sep-Pag C18 Column (waters) based on the manufacture's instruction. Approximately 200 ng of peptide mixture per sample was analyzed using a timsTOF Pro 2 QTOF mass spectrometer coupled with a nanoElute liquid chromatography system (Bruker Daltonik GmbH, Germany). The sample was injected directly into a RP-C18 Aurora emitter column (75 μm i.d.×250 mm, 1.6 μm, 120 Å pore size) (Ion Opticks, Australia) using a one-column separation method. An 80-min gradient was established using mobile phase A (0.1% FA in H2O) and mobile phase B (0.1% FA in Acetonitrile): 2-25% B for 60 min, 25-37% for 10 min, ramping 37% to 95% in 5 min, and maintaining 95% B for 5 min. The column temperature was set at 50° C. and the flow rate at 250 nl/min. […]

A further series relates to WRN fibroblasts. Nature of the series: Quantitative mass spectrometry proteome analysis in WRN fibroblasts. On the procedure: as §1
Another series deals with HGPS hMSCs. Nature of the series: Comparison of 3TC and L1 translation blocker with L1 RNA depletion in HGPS hMSCs (senescence gene qPCR, immuno-FISH, SA-β-gal). Particulars: 3TC 10 mM, translation inhibitor ASOs 20 nM. On the procedure:
(§2) Tail tip fibroblasts (TTFs) were isolated from WT and LAKI mice and cultured at 37° C. in Dulbecco's Modified Eagle Medium (DMEM) (Invitrogen) containing Gluta-MAX, non-essential amino acids, and 10% fetal bovine serum (FBS, Gibco). WT and HGPS human dermal fibroblast were obtained from Coriell Biobank (WT: AG06234, AG10108, AG09309, AG10803, AG03257. HGPS: AG06917, AG11498, AG10578, AG11572, AG06297. APS: AG041100 (LMNA E578V), AG00989 (LMNA R644C), AG00990 (LMNA T10I), AG09233 (unknown mutation). WRN: AG12798; AG24467; AG06300; AG00780; AG05229). For LINE-1 knockdown, cells were incubated with 1 μM FANA ASO dissolved in culture medium (61) every 4 days and collected after two passages for senescent marker expression or immunohistochemistry. 3TC (Sigma-Aldrich) treatments were performed at 10 mM as in De Cecco et al. (11). Translation inhibitor ASOs (miRCURY LNA, Qiagen) were used at a final concentration of 20 nM and transfected with RNAiMAX (Invitrogen, Thermo Fisher Scientific) following manufacturer instructions. […]
(§3) Cells were fixed with 4% formaldehyde in PBS at room temperature (RT) for 10 min. […] Z-stack 3D reconstruction, nuclei segmentation, and fluorescence signal quantification were performed using Imaris (v.8.4.1) using nuclei volume as a reference to normalize fluorescence signals. […]
A general note: Real-time PCR tracks product formation cycle by cycle.

For another series, the system named is WRN hMSCs. The experiment in a line: Comparison of 3TC and L1 translation blocker with L1 RNA depletion in WRN hMSCs (senescence gene qPCR, immuno-FISH, SA-β-gal). The note with it: 3TC 10 mM, translation inhibitor ASOs 20 nM. On the procedure: as §2, §3

[FANA] = 2'-fluoro-arabino; d = 2'-deoxy (DNA)

For the compound “A*C*T* T*C*C CTT CTC GCT TC*A*T*T*T* (ACTTCCCTTCTCGCTTCATTT; sugars from the 5' end [FANA]5 d11 [FANA]5, backbone and methylation of C not given here; listed as Homo sapiens) [human L1 2′F-ANA ASO #1, L1-specific 2′F-ANA modified ASO used in all human cell experiments; * denotes 2′F-ANA modified nucleotides]”, the “protein differential expression (quantitative mass spectrometry)” value with HGPS fibroblasts and with WRN fibroblasts was “ameliorated the aged phenotype also at proteome global level” in each case.
Regarding `Nc1ccn([C@@H]2CS[C@H](CO)O2)c(=O)n1` [3TC], the entries for the “anti-aging effect (senescence-associated gene expression, H3K9me3, SA-β-gal positive cells)” value in the series on HGPS hMSCs and in the series with WRN hMSCs were “no effect” and “less potent anti-aging effect compared to L1 RNA depletion”, respectively.

The values above are taken from patent US20260048076A1, “METHODS FOR DECREASING OR INHIBITING HUMAN L1 RETROTRANSPOSON RNA AND COMPOSITIONS FOR USE THEREIN” (ALTOS LABS, INC., priority 2022, published 2026).
